Laboratory results as given in patent US20210106649A1, “SYNERGISTIC COMBINATION OF CHEMOTHERAPY AND PEPTIDE FOR TREATING CANCER” (TOBEBIO Novel Drug Laboratory Co., Ltd., priority 2019, published 2021).
Ends that are not written are not given here.

System: AsPC-1 pancreatic cancer cells
Experiment: Survival analysis of AsPC-1 pancreatic cancer orthotopic mice model
Format: in vivo, athymic nude mice
Details: alloferon-1 2.5 mg/kg daily s.c.; paclitaxel 8 mg/kg weekly i.p.; orthotopic AsPC-1 nude mice
Method: AsPC-1, human pancreas adenocarcinoma cell line, was purchased from American Type Culture Collection (ATCC) and maintained in a complete Eagle's minimal essential medium (MEM) medium supplemented with 10% fetal bovine serum (FBS) (Hyclone), non-essential amino acid, sodium pyruvate, penicillin-streptomycin and vitamin solution (Life Technologies). AsPC-1 cells were incubated at 37° C. in a mixture atmosphere of 5% CO2 and 95% […]. Cell lines were authenticated via short tandem repeat (STR) profiling (Cosmogenetech).
The number of survival days for all animals was recorded and statistical analysis was performed using the GraphPad Prism 8. Kaplan-Meier survival plots were analyzed with the Log-rank (Mantel-Cox) test to compare survival rates between groups. A probability (P) value of <0.05 or lower was considered statistically significant.

Compound | Median survival
CC(=O)O[C@H]1C(=O)[C@@]2(C)[C@H]([C@H](OC(=O)c3ccccc3)[C@]3(O)C[C@H](OC(=O)[C@H](O)[C@@H](NC(=O)c4ccccc4)c4ccccc4)C(C)=C1C3(C)C)[C@]1(OC(C)=O)CO[C@@H]1C[C@@H]2O [Paclitaxel, paclitaxel] | 107 days
HGVSGHGQHGVHG [Alloferon-1] | 91 days
